Source: patent US11883436B2, “Method of preparing hematopoietic stem and progenitor cells for transplantation” (THE BOARD OF TRUSTEES OF THE UNIVERSITY OF ILLINOIS, priority 2020, dated 2024)

Key:
[1] = test system: CD34+ UCB progenitors; experiment: Human umbilical cord blood (UCB) colony forming assays; format: cell-based
Procedure: Human Umbilical Cord Blood (UCB) Colony Forming Assays. Colony forming assays were carried out with either CD34^+ UCB progenitors treated as above prior to xenotransplant (i.e., input cells), or from xenotransplant recipient BM after 16 weeks (i.e., output cells). Input cells were plated at a density of 1×10^3 cells/dish. Output cells were plated at a density of 2×10^5 cells/dish. Cells were mixed with METHOCULT® M3434 culture medium (STEMCELL Technologies) and plated into each of three 35-mm gridded dishes. Dishes were incubated at 37° C. for 12 days and colonies were enumerated under a bright light microscope. A clonogenic colony contained at least 50 cells or greater. Findings from the mouse model indicated a role for Gabbr1 neuroreceptor in two aspects of hematopoiesis: proliferation of HSPCs and differentiation of B lineage cells. To evaluate functional conservation of Gabbr1 in hematopoiesis, and translational potentials of GABA signaling for HSPCs, CD34^+ UCB cells were exposed for 2 hours in vitro with increasing doses of either baclofen (Bac), a clinically approved GABA agonist (Bowery, et al. (1980) Nature 283(5742):92-94), or 2-hydroxy-saclofen (Sac), a selective antagonist of GABA B receptor (Kerr, et al. (1988) Neurosci. Lett. 92(1):92-96). […]

[2] = test system: LSK progenitors; experiment: OP9 co-culture B cell differentiation of LSK progenitors treated with Baclofen; format: cell-based, mouse
Procedure: In vitro B Cell Differentiation Assay. LSK progenitors (4,000) from wild-type and Gabbr1^−/− mice were directly sorted onto pre-prepared OP9 stromal cells with 1 mL complete DMEM medium containing 10% FBS, 1 ng/mL IL-7, and 5 ng/mL Flt-3L. Three and six days later, 1 mL complete DMEM medium was added. One week after initial culture, all cells including OP9 cells were mechanically detached and filtered with a […] cell strainer. Cells were passaged onto fresh OP9 stromal cells with complete medium. Medium was changed every three days. At 14 days after initial culture, all cells were detached and stained with CD45.2, CD19, B220 and CD11b antibodies. The numbers of the different hematopoietic cell populations in each well were calculated by multiplying the total cell numbers from each well with the frequencies of each population. To assess the effects of Gabbr1 on myeloid cell differentiation from LSK cells, the DMEM medium containing 10% FBS, 1 ng/ml IL-7, 5 ng/ml Flt-3L, 5 ng/ml IL-6, 6 ng/ml IL-3 was used. Fourteen days after sorted LSK cells were cultured on OP9 cells, numbers of CD11b^+ and Gr-1^+ cells were measured via flow cytometry.
In addition, OP9 co-culture experiments were carried out to differentiate HSPCs in vitro toward B lineages. LSK progenitors (3,000-4,000 cells) were sorted from wild-type or Gabbr1 null mutants. These cells were plated on a stromal OP9 cells and induced to differentiate into B cells by supplementing media (a-MEM 25% HYCLONE™ FBS) with IL-7 (1 ng/mL) and Flt3L (5 ng/mL). […]
To test if OP9 co-cultures would respond to GABBR1 agonist during B cell differentiation, and allow downstream biochemical analysis, the co-cultures were treated with Baclofen. […] Cultures were harvested and analyzed for cell surface marker expression (B220^+ and GABBR1^+) by flow cytometry at day 12.
As part of this self-regulating direct feedback mechanism, it was also determined whether there were any changes in GABBR1 surface expression in B lineages using flow cytometry. […]

[3] = test system: CD34+ UCB cells; experiment: CD34+ UCB cell xenotransplants into NSG mice after 2 hour ex vivo treatment; engraftment at 16 weeks; format: in vivo, human
Procedure: CD34^+ UCB Cell Xenotransplants into NSG Mice. All NSG studies were carried out in accordance with, and approval of the Institutional Animal Care and Use Committee of Indiana University School of Medicine and the Guide for the Care and Use of Laboratory animals. Female NOD.Cg-Prkdc^scid I12rg^tm1Wj1/Szj (NSG) mice were obtained from the In Vivo Therapeutics Core of the Indiana University Simon Cancer Center. Animals were maintained under pathogen-free conditions and maintained on Irradiated Global 2018 (Uniprim 4,100 ppm; Harlan Laboratories) food pellets with ad libitum access to autoclaved, acidified tap water under a 12-hour light-dark cycle at 22° C. to 24° C. Mice were irradiated 4 hours prior to transplant (3.0 Gy of ^137Cesium γ-ray irradiation in an irradiator (J. L. Shepherd, Glendale, CA) at a dose rate of 88 cGy/min). CD34^+ UCB cells were thawed in 1% human serum albumin in STEMSPAN® media (STEMCELL Technologies) with human SCF 100 ng/ml and allowed to sit for 2 hours. Cells were then counted and plated at 0.5×10^6 cells/mL in STEMSPAN® media with 1% HSA. Cells were plated and treated with the following for 2 hours at 37° C.: 1, 10, or 50 μM (RS)-Baclofen (Tocris); 1, 10, or 50 μM 2-hydroxy-saclofen (Tocris); vehicle control (DMSO). Cells were harvested and immediately washed with PBS by centrifugation at 300×g for 10 minutes. Mice were transplanted with 20,000 cells each in 200 μL PBS (n=7 mice per group). PB and BM were harvested at 16 weeks post-transplant.
Analysis and Multi-Parametric Flow Cytometry Immunostaining of Xenotransplant Mice. For peripheral blood counts, blood was obtained through retro-orbital bleeding and transferred to EDTA-coated tubes. Peripheral blood cell numbers were determined using a Vet Abc Hematological analyzer (Scil Animal Care). For PB, BM, and spleen analysis of the target populations in xenotransplant mice, the cells were collected using a red blood cell lysis assay (eBioscience). The following primary conjugated monoclonal antibodies were used: anti-human CD34 PE (BD Pharmingen), anti-human AC133 APC (Miltenyi Biotec), anti-human CD19 PECy7 (BD Pharmingen), anti-human CD33 PerCP-Cy5.5 (BD Pharmingen), anti-human CD38 FITC (BD Pharmingen), anti-human CD45 APC-fluorescent dye sold under the tradename ALEXA FLUOR® (AF) 750 (Invitrogen), and the fixable amine reactive viability dye, LiveDead (Violet, Invitrogen).
The lysed PB, BM, and spleen cells were incubated with both human and murine Fc blocking reagent (Miltenyi Biotec) for 10 minutes on ice. Briefly, cells were incubated with the titered antibodies listed above for 30 minutes at 4° C., washed twice in PBS with 2% fetal bovine serum, fixed in 1% PFA (Tousimis), and analyzed within 24 hours on a BD Fortessa™ flow cytometer (BD, Franklin Lakes, NJ, USA) equipped with a 405 nm violet laser, 488 nm blue laser, 640 nm red laser, and 561 nm yellow-green laser. Approximately 100,000 events per sample were acquired uncompensated and exported as FCS 3.1 files, and analyzed utilizing FlowJo software, version 9.9.6 (Tree Star, Inc). “Fluorescent minus one” (FMO) gating controls were also used to ensure proper gating of positive events (Estes, et al. (2010) Curr. Prot. Cytometry 9:9.33.331-11; Estes, et al. (2010) Cytometry Part A 77:831-839).
Findings from the mouse model indicated a role for Gabbr1 neuroreceptor in two aspects of hematopoiesis: proliferation of HSPCs and differentiation of B lineage cells. To evaluate functional conservation of Gabbr1 in hematopoiesis, and translational potentials of GABA signaling for HSPCs, CD34^+ UCB cells were exposed for 2 hours in vitro with increasing doses of either baclofen (Bac), a clinically approved GABA agonist (Bowery, et al. (1980) Nature 283(5742):92-94), or 2-hydroxy-saclofen (Sac), a selective antagonist of GABA B receptor (Kerr, et al. (1988) Neurosci. Lett. 92(1):92-96). […]

[4] = test system: GAD1/2f/f; CD79a/Mb1-Cre HSPCs (LSK); experiment: OP9 co-culture B cell differentiation of GAD1/2-deleted HSPCs with Baclofen in the media; format: cell-based, mouse; settings: media supplemented with agonist, 12 days
Description: To genetically block GABA production during B cell differentiation, the B lineage Cre lines CD79a/Mb1-Cre (19) and CD19-Cre were used (Rickert, et al. (1997) Nucl. Acids Res. 25(6):1317-8). These lines were crossed to a GAD1/2-floxed allele (Meng, et al. (2016) Proc. Natl. Acad. Sci. USA 113(13):3645-50) that also carries the Ai14 Lox-Stop-Lox-tdTomato Cre reporter (Madisen, et al. (2010) Nat. Neurosci. 13(1):133-40). At 6-8 weeks of age, BM were harvested and HSPCs (LSK) were sorted from GAD1/2^f/f; CD79a/Mb1-Cre (Cd79a KO) and GAD1/2^f/f-CD19-Cre (Cd19 KO) mice, as well as littermate Cre-negative controls (wild-type). GAD1/2^ff/ excised by Cre recombination will delete the only enzymes that can produce GABA. HSPCs were plated, 3,000-4,000 per well, in OP9 co-culture and were differentiated for 12 days. Cells were harvested from co-cultures for analysis by flow cytometry. The Ai14 Cre reporter was used to confirm that >95% of CD19^+ and/or B220^+ cells were tdTomato^+ as an indication of robust Cre excision in B lineages. Removal of GAD1/2 with CD79a/Mb1-Cre, but not CD19-Cre, led to dramatic reduction of absolute numbers of CD45^+ hematopoietic and B220^+ B lineages. The percentage of B220^+ cells decreased with GAD1/2 deletion by CD79a/Mb1-Cre.

[5] = test system: HSPC; settings: literature comparison; cited from earlier work
[6] = 10 μM vs vehicle control, spleen of transplanted NSG mice

Structure (SMILES): NCC(CC(=O)O)c1ccc(Cl)cc1 (racemic) [Baclofen, 4-amino-3-(4-chorophenyl)-butanoic acid]
- in vitro CFUs of CD34+ UCB cells ([1]; input cells, after 2-hour treatment): did not produce increased colonies
- progenitor colonies (CFU) in BM of NSG mice transplanted with treated CD34+ UCB cells, vs controls ([1]; output cells, 16 weeks post-transplantation): three-fold
- B cell production (B220+ cell number) ([2]; 1 μM, day 12): reached significance in its stimulation of B cell production
- B cell number across dose curve ([2]; 0.5, 1.0, 5.0, 10 μM, day 12): trend of B cell number increase, then decrease
- percentage of B220+ cells with surface expression of GABBR1+ ([2]; 0.5, 1, 5, 10 μM, day 12, flow cytometry): decreased
- progenitor engraftment CD38+, BM chimerism ([3]; 10 μM vs vehicle control, BM, 16 weeks): significant increases
- CD19+ B-cell reconstitution in spleen [3, 6]: two-fold
- overall engraftment in spleen [3, 6]: significant increases in overall engraftment
- progenitor-specific CD34+ BM engraftment in NSG mice ([3]; 10 μM, 2 hours ex vivo, 16 weeks post-transplant): significant improvement
- engraftment of hCD45+ cells in NSG recipients (BM) ([3]; 10 μM, 2 hours ex vivo, 16 weeks post-transplant, vs vehicle control): dramatic enhancement over vehicle control
- chimerism, fold higher (long-term engraftment) ([3]; UCB CD34+ cells, 2 hour treatment, 10 μM dose, before transplantation): 2- to 8 fold
- BM chimerism and progenitor numbers in xenograft mouse model ([3]; human CD34+ UCB HSPCs, up to 16 weeks): sustained increases
- rescue of B cell differentiation defect due to GAD1/2 deletion [4]: partially rescues the defect

Structure (SMILES): NCC(O)(CS(=O)(=O)O)c1ccc(Cl)cc1 (stereo not drawn) [2-hydroxy-saclofen, 3-Amino-2-(4-chlorophenyl)-2-hydroxypropyl-sulfonic acid]
- engraftment (CD45+, CD34+) in NSG mice ([3]; 1, 10 or 50 μM, 2 hours ex vivo, 16 weeks post-transplant): did not significantly increase engraftment at any of the tested doses

Structure (SMILES): CCCCC[C@H](O)/C=C/[C@H]1[C@H](O)CC(=O)[C@@H]1C/C=C\CCCC(=O)O [Prostaglandin E2]
- improvement in long-term engraftment [5]: 2- to 4 fold
